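All cell lines were grown in 96-well plates and treated with compound for 48 hours. At the GI50, growth is halved.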 The source made the active and inactive calls. No stated cut-off is given here; in the data, active = GI50 up to about 1.1 µM and inactive = higher. Where a SMILES comes first, the peptide text is derived from it. The star is where a group is joined. Cbz = O=C(OCc1ccccc1)*
Assays:
Experiment in all cases: NCI tumour cell line growth inhibition, 48 h
ACHN = tested on: ACHN
CAKI-1 = tested on: CAKI-1
CCRF-CEM = tested on: CCRF-CEM
HOP-92 = tested on: HOP-92
MOLT-4 = tested on: MOLT-4
NCI/ADR-RES = tested on: NCI/ADR-RES
OVCAR-5 = tested on: OVCAR-5
OVCAR-8 = tested on: OVCAR-8
PC-3 = tested on: PC-3
SF-539 = tested on: SF-539
SK-MEL-2 = tested on: SK-MEL-2
SNB-19 = tested on: SNB-19
SNB-75 = tested on: SNB-75
SR = tested on: SR
T47D = tested on: T47D
UACC-62 = tested on: UACC-62
UO-31 = tested on: UO-31
A498 = tested on: A498
MDA-N = tested on: MDA-N

SMILES | GI50 (ACHN) | GI50 (CAKI-1) | GI50 (CCRF-CEM) | GI50 (HOP-92) | GI50 (MOLT-4) | GI50 (NCI/ADR-RES) | GI50 (OVCAR-5) | GI50 (OVCAR-8) | GI50 (PC-3) | GI50 (SF-539) | GI50 (SK-MEL-2) | GI50 (SNB-19) | GI50 (SNB-75) | GI50 (SR) | GI50 (T47D) | GI50 (UACC-62) | GI50 (UO-31) | GI50 (A498) | GI50 (MDA-N)
O=S(=O)([N-]c1nc2ccccc2nc1-[n+]1ccccc1)c1ccccc1 | > 100 µM (inactive) | > 100 µM (inactive) | 10.8 µM (inactive) | > 100 µM (inactive) | 23.1 µM (inactive) | > 100 µM (inactive) | > 100 µM (inactive) | 68.5 µM (inactive) | > 100 µM (inactive) | > 100 µM (inactive) | > 100 µM (inactive) | > 100 µM (inactive) | > 100 µM (inactive) | 14.9 µM (inactive) | 81.8 µM (inactive) | 93.1 µM (inactive) | > 100 µM (inactive) | – | –
COC(=O)/C(=N/Nc1cccc(Cl)c1)C(C(=O)C(=O)Nc1cccc(Cl)c1C)c1nc2ccccc2nc1C (configuration not stated) | 11.6 µM (inactive) | 52.6 µM (inactive) | 62.5 µM (inactive) | – | > 100 µM (inactive) | – | 24.4 µM (inactive) | > 100 µM (inactive) | – | 59.2 µM (inactive) | 38.5 µM (inactive) | – | – | 90.4 µM (inactive) | – | 24.6 µM (inactive) | 20.1 µM (inactive) | > 100 µM (inactive) | –
Cn1c(-c2cccc([N+](=O)[O-])c2)[n+](C)c2ccccc21 | 41.6 µM (inactive) | > 100 µM (inactive) | > 100 µM (inactive) | > 100 µM (inactive) | > 100 µM (inactive) | > 100 µM (inactive) | > 100 µM (inactive) | 49 µM (inactive) | 46.8 µM (inactive) | > 100 µM (inactive) | > 100 µM (inactive) | > 100 µM (inactive) | > 100 µM (inactive) | > 100 µM (inactive) | > 100 µM (inactive) | > 100 µM (inactive) | > 100 µM (inactive) | > 100 µM (inactive) | –
CSc1c(C#N)c(O)n(-c2ccc(C)cc2)c(=O)c1C(C)=O | – | > 100 µM (inactive) | > 100 µM (inactive) | – | > 100 µM (inactive) | > 100 µM (inactive) | 42.8 µM (inactive) | > 100 µM (inactive) | > 100 µM (inactive) | > 100 µM (inactive) | > 100 µM (inactive) | > 100 µM (inactive) | > 100 µM (inactive) | > 100 µM (inactive) | > 100 µM (inactive) | > 100 µM (inactive) | 88.7 µM (inactive) | 51.5 µM (inactive) | –
NC(=O)CN1CCN(c2nc(N3CCCC3)c3nc(Cl)c(NCc4ccccc4)nc3n2)CC1 | 12.4 µM (inactive) | 17 µM (inactive) | 13.8 µM (inactive) | 8.36 µM (inactive) | 7.26 µM (inactive) | 14 µM (inactive) | 10.1 µM (inactive) | 15 µM (inactive) | 11.8 µM (inactive) | 9.06 µM (inactive) | 9.66 µM (inactive) | 9.89 µM (inactive) | 10.7 µM (inactive) | – | 7.89 µM (inactive) | 9.2 µM (inactive) | 10.7 µM (inactive) | – | 8.67 µM (inactive)
C/C(CC/C(C)=N/O)=N\O | > 100 µM (inactive) | > 100 µM (inactive) | – | – | > 100 µM (inactive) | > 100 µM (inactive) | > 100 µM (inactive) | > 100 µM (inactive) | > 100 µM (inactive) | > 100 µM (inactive) | > 100 µM (inactive) | > 100 µM (inactive) | > 100 µM (inactive) | – | > 100 µM (inactive) | > 100 µM (inactive) | > 100 µM (inactive) | > 100 µM (inactive) | > 100 µM (inactive)
O=C(Nc1ccc2[nH]c(C(=O)N3CC(CCl)c4ccc([N+](=O)[O-])cc43)cc2c1)c1cc2ccccc2o1 (configuration not stated) | – | > 1100 µM (inactive) | > 1100 µM (inactive) | > 1100 µM (inactive) | > 1100 µM (inactive) | > 1100 µM (inactive) | 893 µM (inactive) | > 1100 µM (inactive) | – | > 1100 µM (inactive) | > 1100 µM (inactive) | > 1100 µM (inactive) | – | – | > 1100 µM (inactive) | > 1100 µM (inactive) | > 1100 µM (inactive) | > 1100 µM (inactive) | > 1100 µM (inactive)
Nc1nc(Cl)cc(OCC2(CO)CCCCC2)n1 | > 100 µM (inactive) | – | > 100 µM (inactive) | 40.7 µM (inactive) | > 100 µM (inactive) | > 100 µM (inactive) | > 100 µM (inactive) | 96.6 µM (inactive) | > 100 µM (inactive) | > 100 µM (inactive) | – | > 100 µM (inactive) | 66.1 µM (inactive) | > 100 µM (inactive) | – | – | – | 40.7 µM (inactive) | > 100 µM (inactive)
CNc1nc(C(N)=O)c(N)s1 | > 100 µM (inactive) | > 100 µM (inactive) | > 100 µM (inactive) | > 100 µM (inactive) | > 100 µM (inactive) | > 100 µM (inactive) | > 100 µM (inactive) | > 100 µM (inactive) | > 100 µM (inactive) | > 100 µM (inactive) | > 100 µM (inactive) | > 100 µM (inactive) | – | – | > 100 µM (inactive) | > 100 µM (inactive) | > 100 µM (inactive) | > 100 µM (inactive) | > 100 µM (inactive)
CC1CC(=O)Nc2cc(Cl)ccc2N1C(=O)C1CC1 (configuration not stated) | > 100 µM (inactive) | > 100 µM (inactive) | > 100 µM (inactive) | > 100 µM (inactive) | > 100 µM (inactive) | – | > 100 µM (inactive) | > 100 µM (inactive) | > 100 µM (inactive) | > 100 µM (inactive) | > 100 µM (inactive) | > 100 µM (inactive) | – | – | > 100 µM (inactive) | – | > 100 µM (inactive) | > 100 µM (inactive) | > 100 µM (inactive)
S=C(/N=c1\sc(Nc2ccc(Cl)cc2)nc2sc3c(c12)CCN(N1CCc2c(sc4nc(Nc5ccc(Cl)cc5)s/c(=N\C(=S)Nc5ccc(Cl)cc5)c24)C1)C3)Nc1ccc(Cl)cc1 | 35.1 µM (inactive) | – | – | – | 67 µM (inactive) | 48 µM (inactive) | 26.7 µM (inactive) | 43.1 µM (inactive) | 30.3 µM (inactive) | 17.9 µM (inactive) | 23.4 µM (inactive) | 55.2 µM (inactive) | 26.7 µM (inactive) | – | – | 22.4 µM (inactive) | 62.1 µM (inactive) | – | 17 µM (inactive)
Cc1ccc2nc3c(=O)[nH]c(=O)nc-3n(C)c2c1C | > 100 µM (inactive) | > 100 µM (inactive) | > 100 µM (inactive) | – | > 100 µM (inactive) | > 100 µM (inactive) | > 100 µM (inactive) | > 100 µM (inactive) | > 100 µM (inactive) | > 100 µM (inactive) | > 100 µM (inactive) | > 100 µM (inactive) | > 100 µM (inactive) | – | > 100 µM (inactive) | > 100 µM (inactive) | > 100 µM (inactive) | – | > 100 µM (inactive)
CC12CCC(C(Nc3cc(C(F)(F)F)cc(C(F)(F)F)c3)C1=O)C2(C)C (configuration not stated) | > 100 µM (inactive) | > 100 µM (inactive) | – | – | > 100 µM (inactive) | > 100 µM (inactive) | > 100 µM (inactive) | > 100 µM (inactive) | > 100 µM (inactive) | > 100 µM (inactive) | > 100 µM (inactive) | > 100 µM (inactive) | – | > 100 µM (inactive) | > 100 µM (inactive) | > 100 µM (inactive) | > 100 µM (inactive) | > 100 µM (inactive) | –
CC(C)(Oc1ccccc1)C(=O)Sc1c(-c2ccccc2)c(=O)n(-c2ccccc2)c(=S)n1-c1ccccc1 | 33.1 µM (inactive) | > 100 µM (inactive) | 25.9 µM (inactive) | > 100 µM (inactive) | 36.4 µM (inactive) | 62.7 µM (inactive) | 75.3 µM (inactive) | 18.6 µM (inactive) | – | 23.8 µM (inactive) | – | 47.2 µM (inactive) | > 100 µM (inactive) | 22.1 µM (inactive) | 64.3 µM (inactive) | 80 µM (inactive) | 65.3 µM (inactive) | 80.9 µM (inactive) | 56.8 µM (inactive)
COc1ccc(C(=O)c2cc(OC)c(OC)c(OC)c2)cc1OC | 9.25 µM (inactive) | – | 4.37 µM (inactive) | – | 4.17 µM (inactive) | 3.84 µM (inactive) | 14.6 µM (inactive) | 5.38 µM (inactive) | 3.86 µM (inactive) | 2.32 µM (inactive) | 3.08 µM (inactive) | 3.21 µM (inactive) | 4.04 µM (inactive) | 3.28 µM (inactive) | – | 4.57 µM (inactive) | 3.71 µM (inactive) | – | 0.618 µM (active)
Cc1cnc2nc(-c3ccc4ccccc4c3)cc(O)c2c1 | 0.658 µM (active) | – | 0.323 µM (active) | – | 0.431 µM (active) | 0.349 µM (active) | 0.855 µM (active) | 0.685 µM (active) | – | 0.391 µM (active) | > 100 µM (inactive) | 0.908 µM (active) | 0.391 µM (active) | – | > 100 µM (inactive) | 0.317 µM (active) | 0.847 µM (active) | 0.421 µM (active) | –
CCOC(=O)C(CC(=O)OC)NC(=O)C(CC(=O)OC)NC(=O)C(CC(=O)OC)NC(=O)C(CC(=O)OC)NC(=O)OCc1ccccc1 (configuration not stated) (Cbz-D(OMe)D(OMe)D(OMe)D(OMe)-OEt; configuration not given here) | > 100 µM (inactive) | – | – | > 100 µM (inactive) | > 100 µM (inactive) | – | > 100 µM (inactive) | > 100 µM (inactive) | > 100 µM (inactive) | – | > 100 µM (inactive) | > 100 µM (inactive) | > 100 µM (inactive) | > 100 µM (inactive) | > 100 µM (inactive) | > 100 µM (inactive) | > 100 µM (inactive) | > 100 µM (inactive) | > 100 µM (inactive)

From ChEMBL document CHEMBL1201862, “PubChem BioAssay data set” (2004)
